The values below come from a melting point compilation (Tetko et al.; mined from patent text by program, amines drawn as free bases though some values may be those of a salt).

Broadly, the melting point is the temperature of the solid-liquid transition.

A value given as a limit tells only on which side of the number the result lay.

For `CC(C)(C)OC(=O)N1CCC(NCc2cccc(NC(=O)c3ccc(F)cc3)n2)CC1`, the melting point came to 77.7 °C.
`C=CCO/N=C(/C(=O)O)c1ccc(OCCOc2ccc3ccccc3c2)s1` yielded a melting point of 106 to 108 °C.
Turning to `CCCOc1cc(O)nc(N(C)C)n1`, the melting point was in the range of 194 to 195 °C.
For `CCCCOC1c2ccccc2C(=O)N(CC(C)C)C1(/C=C/C(N)=O)CNC(=O)OC(C)(C)C` (configuration not stated) the value was 149 to 150 °C; for `Nc1ncc2ncn(OCC(O)CO)c2n1` (configuration not stated), 183 to 185 °C; for `O=[N+]([O-])c1ncc(Cl)cc1O`, 97 °C.
On to `CCC(=O)Nc1cc(C2=NNC(=O)CC2C)ccc1N1CCOCC1` (configuration not stated), for which the melting point fell in the range of 193 to 196 °C.
`C=CCc1c(O)nc(N)nc1O` returned a melting point of more than 250 °C.
`CC(C)(C)n1ncc(OCc2ccc(OCC(F)(F)C(F)F)nc2)c(Cl)c1=O` had a melting point of 112 to 118 °C.
For `O=C(Cn1ncc(-c2ccccc2)c1-c1ccccc1)NCCN1CCCC1` the value was 80 to 84 °C; for `Cn1nnnc1SCCCC(=O)c1ccc(C(=O)O)o1`, 154 to 157 °C; for `O=c1c(CO)cc(-c2ccc3occc3c2)nn1Cc1ccc(F)cc1`, 158 to 160 °C.
The figure for `Cc1ccc2sc3cc(CC(=O)O)ccc3c2c1` is 185 to 187 °C; for `COC(=O)[C@@H]1CCCN1C(=O)C[C@H]1CCc2ccccc2C1` it is 62 to 64 °C; for `Cc1ccccc1N1CC(=O)N(C)C(=O)N1` it is 147 to 148 °C.
The figure for `COC(=O)c1c(Cc2ccc(C(=O)O)cc2)c(=O)c2ccc(Cl)cc2n1-c1ccccc1` is 258 to 261 °C.
In the case of `CCOC(=O)c1c(C)cc(C(=O)O)c(NC=O)c1C`, the melting point fell in the range of 144 to 146 °C.
The compound `CC(C)(Oc1ccc(CCC(=O)c2ccc(-c3ccc(C(F)(F)F)cc3)s2)cc1F)C(=O)O` displayed a melting point of 150 to 151 °C.
The compound `CCCCN(C)C(N)=C(C#N)C#N` gave a melting point of 160 to 161 °C.
The figure for `CSc1nc(F)cc(F)n1` is 31 to 32 °C.
For `COC(=O)C[C@H](CC(=O)O[Si](C)(C)C(C)(C)C)O[Si](C)(C)C(C)(C)C` the value was 44 to 46 °C; for `O=C1OC[C@H]2[C@@H]1N(Cc1ccccc1)C(=O)N2Cc1ccccc1` (relative stereo), 106 to 109 °C; for `Cc1cccc(-c2nc(N)c3ccccc3n2)n1`, 201 °C.
Compound `Cc1cc(C(=O)CCl)c(N)cc1Cl` had a melting point of 129 to 130 °C.
Consider `CC(C)[Si](C#Cc1c2cc3ccccc3cc2c(C#C[Si](C(C)C)(C(C)C)C(C)C)c2cc3ccccc3cc12)(C(C)C)C(C)C`, for which the melting point stood at 210 °C.
`O=C(Cc1ccc(Cl)cc1)N1CCc2cc(S(=O)(=O)N3CCN(c4cccc(Cl)c4)CC3)ccc21` registered a melting point of 186 to 187 °C.
For `C=CCONC(=O)c1nc(-c2ccc(C#N)cc2)cc(N)c1Cl` the value was 218 to 221 °C.
For the compound `CCC(OCC1CC1)c1ccc(Cl)c2nc3n(c12)CCCN3c1ccc(Cl)cc1Cl` (configuration not stated), the melting point was in the range of 159 to 160 °C.
Compound `CC1Cc2cc(Cl)c(Cl)cc2C(c2ccc([N+](=O)[O-])cc2)=NN1` (configuration not stated) showed a melting point of 182 to 184 °C.
For `CC(=O)Nc1ccc(-c2c[nH]c(=O)cn2)cc1` the value was 268 to 275 °C; for `CC(C=CCO)Oc1ccc(Oc2cnc3cc(F)ccc3n2)cc1` (configuration not stated), 109 to 111 °C; for `Cc1cc(C)c(Nc2nc(C)ccc2S(=O)(=O)c2ccc(OCc3ccccc3)cc2)c(C)c1`, 158 to 160 °C.
Regarding `COc1cc2c(cc1OC)C(C#N)N(C(=O)c1ccccc1)C=C2` (configuration not stated), the melting point lay within 155 to 157 °C.
The compound `CCOC(=O)c1cnc2c(c(C)nn2CC)c1O` came in with a melting point of 91 to 93 °C.
`CCCCCS(=O)(=O)NC(=O)/C=C/c1cc(C(C)C)nn1Cc1ccc(Cl)cc1Cl` had a melting point of 149 to 151 °C.
The figure for `COC(=O)c1ccc2oc(-c3ccc(C(F)(F)F)cc3)cc2c1` is 180 °C; for `Nc1cc(-c2ccncc2)n[nH]c1=O` it is more than 300 °C; for `Cc1c(O)ccc(C=O)c1O` it is 150 °C.
The figure for `CNS(=O)(=O)c1cccc(S(N)(=O)=O)c1` is 125 to 128 °C; for `O=C1CN(c2cccc(Oc3ccccc3)c2)NC(=O)N1` it is 172 to 173 °C.
Compound `COc1cccc(C(=O)C(=NN)c2cccc(OC)c2)c1` showed a melting point of 109 to 110 °C.
For `N#Cc1ncn2c(C(F)(F)F)cc(-c3ccc(Cl)cc3)nc12` the value was 205 °C.
The figure for `COc1cc(C)c(/C=C/c2nc3c(c(=O)n(C)c(=O)n3C)n2C)cc1C` is more than 280 °C; for `COC(=O)CSc1nc(Nc2ccc(N3CCC(C)CC3)cc2)ncc1[N+](=O)[O-]` it is 180 to 184 °C; for `CC(C)(C)CCC(=N)NC(=S)Nc1ccc(Cl)cc1` it is 135 to 137 °C.
As for `CC(O)c1ccc2c(NCc3ccc(NC(=O)c4ccc(F)cc4)cc3)nc(N(C)C)nc2c1` (configuration not stated), the melting point is 232 °C.
The figure for `CSc1ccc(CC2CCc3cc(OCCn4ccnc4)ccc3C2=O)cc1` (configuration not stated) is 114 to 117 °C; for `COC(=O)COc1ccc2cc(-c3csc(-c4ccccc4)n3)ccc2c1Br` it is 156 to 159 °C.
The figure for `CS(=O)(=O)c1ccc(-c2ccc(C(F)(F)F)n2-c2ccc(F)cc2)cc1` is 136 to 139 °C; for `CCC1(CC)c2cc(I)ccc2-c2ccc(-c3nc4ccccc4s3)cc21` it is 158 to 160 °C; for `CCOC(=O)c1cnc2nc(N3CCN(C)CC3)ncc2c1OCC` it is 105 to 108 °C.
In the case of `CC1C(c2ncc(Cl)cc2F)=NN(C)CS1=S` (configuration not stated), the melting point was 107 to 112 °C.
Compound `COCC(C)Oc1ccc2c(c1)c(-c1cc3cccnc3[nH]1)cn2C` (configuration not stated) registered a melting point of 150 to 151 °C.
For `N#CN=c1ncccn1Cc1ccc(Cl)nc1` the value was 218 to 220 °C; for `CC(=O)Oc1ccc(C(=O)NNC(=O)c2occ(-c3ccccc3)c2-c2ccccc2)cc1C#N`, 131 to 133 °C.
The figure for `CON=C(C1=CN(C)CC=C1)C(F)(F)F` is 140 to 143 °C; for `COC(=O)[C@@H]1C[C@H]1C(=O)O` (relative stereo) it is 46 to 47 °C; for `Cc1cc2c(-c3cccc(C(=O)O)c3)c(CC(=O)Nc3ccc(Cl)cc3C(F)(F)F)c(=O)oc2cc1Cl` it is 270 to 272 °C.
`CS(=O)(=O)O[C@H](COC(=O)CCl)[C@H](NC(=O)OCc1ccccc1)C(N)=O` had a melting point of 140 to 142 °C.
`CC(C)(C)NS(=O)(=O)c1ccc(C(=O)c2ccc(F)cc2)cc1` had a melting point of 160 °C.
The figure for `Cc1nn(-c2cc(C(=O)NS(=O)(=O)N(C)C(C)C)c(Cl)cc2F)c(=O)n1C(F)F` is 118 to 122 °C.
`CCC1(C)C(=O)c2cc(OC)c(Cl)c(Cl)c2C1=O` (configuration not stated) came in with a melting point of 157 °C.
For `N=C(NCCOc1cccc2[nH]c3ccccc3c12)c1cccs1` the value was 180 to 181 °C; for `NS(=O)(=O)c1ncccc1NC=O`, 183 °C; for `CC(=O)NC[C@H]1CN(c2cc(F)c(N3CCC(n4ncn(C)c4=S)CC3)c(F)c2)C(=O)O1`, 168 to 170 °C.
For the compound `O=C(NN=Cc1ccc2ccccc2n1)c1cccc([N+](=O)[O-])c1`, the melting point lay within 217 to 218 °C.
For `CC(C)(C)C(=O)Nc1cc(Cl)c(Cl)cn1` the value was 105 to 106 °C; for `Fc1ccc(Cn2cnc3c(-c4ccco4)ncnc32)cc1`, 162 to 164 °C; for `Cc1cc(CCCCCOc2c(Cl)cc(C3=NCCO3)cc2Cl)sn1`, 38 to 39.5 °C.
`CC(C(=O)O)c1ccc2c(c1)C(=O)Cc1ccc(Cl)cc1S2` (configuration not stated) yielded a melting point of 142 to 143 °C.
`COc1cc([N+](=O)[O-])c2ncccc2c1Cl` gave a melting point of 204 to 206 °C.
For `COCCc1nc2c(N)nc3ccccc3c2n1Cc1ccccc1`, the melting point was 202 to 204 °C.
The figure for `NC(=O)N1CCN(c2nn(-c3ccccc3F)c3ccccc23)CC1` is 148 to 150 °C; for `COCCNC(=O)c1cccc(-c2cccc3cc(Cc4cc(Cl)cc(Cl)c4)sc23)c1` it is 109 to 110 °C.
Consider `CCCC(=O)Nc1n[nH]c2cc(Cl)c(-c3ccc(CC)cc3)cc12`, for which the melting point was 240 °C.
`COc1ccc(C(=O)C23CCCCC2C(=O)O3)cc1` (configuration not stated) returned a melting point of 77.5 to 78.5 °C.
For the compound `CCOc1nc2ccccc2n2cc(C(=O)O)nc12`, the melting point was in the range of 220 to 222 °C.
The figure for `COc1ccc(Cn2nnc(-c3cccc(C(=O)NCc4ccc(C(=O)O)cc4)c3)n2)cc1` is 202 to 205 °C; for `CN1CCC(OC(c2cccc(SCCNC(=N)NC#N)c2)c2nc3ccccc3[nH]2)CC1` (configuration not stated) it is 65 °C; for `COC(=O)Cc1cc(NC(=O)OC(C)(C)C)c(N)cc1C#Cc1ccccc1` it is 130 °C.
On to `CN1N=C2C(=Cc3ccccc3)CN(C(N)=O)CC2C1c1ccccc1` (configuration not stated), for which the melting point lay within 191 to 193 °C.
As for `CCC(O)(c1ccc(OCc2cccc(C)n2)cc1)c1ccccc1OC` (configuration not stated), the melting point was in the range of 110 to 111 °C.
For `Cc1[nH]c(=O)c2ccccc2c1CC(=O)O` the value was 280 to 295 °C; for `COc1cc(-c2ccc(C=O)o2)ccc1Br`, 127 to 128 °C; for `O=C(CC(Cc1cccc2ccccc12)C(=O)O)NCCc1c[nH]c2ccccc12` (configuration not stated), 73 to 75 °C.
For `O=Cc1cnc(Sc2nc3ccccc3[nH]2)s1` the value was 188 °C; for `NC(=O)c1cc2c(C=Cc3ccccc3)cncc2s1`, 257 to 258 °C.
As for `CCCCC1CCC2NC(=O)CC2C1` (configuration not stated), the melting point is 109 to 111 °C.
In turn, `COC(=O)CCCc1cc2cc(Cl)ccc2n1S(=O)(=O)c1cccc(OC)c1` displayed a melting point of 107 to 109 °C.
The figure for `Cc1cc(N(C)C)ccc1-c1c(O)c(=O)c1=O` is more than 114 °C; for `COC(C)C#Cc1ncn2c1CN(C)C(=O)c1c(Cl)cccc1-2` (configuration not stated) it is 139 to 141 °C.
The compound `O=c1[nH]nnn1-c1ccc(C(F)(F)F)cc1` yielded a melting point of 191 to 192 °C.
